Counter-ions that a name gives are not always drawn.
Experiments:
α1B (rat spleen) = molecular target: T1, α1B (rat spleen) (Rattus norvegicus, UniProt P15823); experiment: Agonist contraction of smooth muscle tissue, rat spleen; assay type: cell-based; conditions: rat spleen; read-out: Agonist Tissue Response (pD2) α1B (rat spleen) (converted)
T1 construct: α1B (rat spleen) and α1D (rat aorta) receptors; from tissue; host or cells: rat spleen
T1 sequence (P15823 1-515): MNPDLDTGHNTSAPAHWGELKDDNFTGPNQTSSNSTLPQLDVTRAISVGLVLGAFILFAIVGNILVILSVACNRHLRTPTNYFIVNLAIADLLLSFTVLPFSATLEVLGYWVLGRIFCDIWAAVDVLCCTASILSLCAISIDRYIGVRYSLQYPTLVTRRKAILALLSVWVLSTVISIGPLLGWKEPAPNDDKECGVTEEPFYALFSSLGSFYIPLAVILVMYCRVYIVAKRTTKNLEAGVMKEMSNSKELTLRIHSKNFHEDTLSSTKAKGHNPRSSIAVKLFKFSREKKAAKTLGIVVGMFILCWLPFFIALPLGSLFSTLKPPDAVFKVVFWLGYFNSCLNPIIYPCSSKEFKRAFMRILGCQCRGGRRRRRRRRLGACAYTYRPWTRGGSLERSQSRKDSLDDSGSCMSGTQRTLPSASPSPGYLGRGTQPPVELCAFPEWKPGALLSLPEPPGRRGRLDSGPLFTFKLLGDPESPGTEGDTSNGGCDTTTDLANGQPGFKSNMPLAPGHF

[1] = molecular target: T2, α1A (rat submaxillary gland) (Rattus norvegicus, UniProt P43140); experiment: Radioligand binding with [3H]-prazosin, α1A; conditions: rat submaxillary gland, [3H]-prazosin
T2 construct: α1A (rat submaxillary gland); from tissue; host or cells: rat submaxillary gland
T2 sequence (P43140 1-466): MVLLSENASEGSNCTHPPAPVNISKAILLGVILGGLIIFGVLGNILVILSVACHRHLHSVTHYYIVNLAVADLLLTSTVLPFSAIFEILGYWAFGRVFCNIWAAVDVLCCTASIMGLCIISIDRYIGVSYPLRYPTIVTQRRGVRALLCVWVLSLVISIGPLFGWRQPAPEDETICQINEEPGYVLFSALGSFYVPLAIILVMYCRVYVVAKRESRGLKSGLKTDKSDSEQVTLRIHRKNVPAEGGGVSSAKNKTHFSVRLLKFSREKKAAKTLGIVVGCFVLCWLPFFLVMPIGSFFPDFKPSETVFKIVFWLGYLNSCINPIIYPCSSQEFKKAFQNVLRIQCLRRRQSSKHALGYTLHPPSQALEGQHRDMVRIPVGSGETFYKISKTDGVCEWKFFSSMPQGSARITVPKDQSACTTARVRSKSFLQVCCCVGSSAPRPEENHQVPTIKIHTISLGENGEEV
Method in brief: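 Radioligand binding with [3H]-prazosin: α1A from rat submaxillary gland; α1b hamster receptor and α1d rat receptor, each expressed in mouse fibroblasts.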

α1D (rat aorta) = molecular target: T3, α1D (rat aorta) (Rattus norvegicus, UniProt P23944); experiment: Agonist contraction of smooth muscle tissue, rat aorta; assay type: cell-based; conditions: rat aorta, endothelium removed; for EC50: read-out: Agonist Tissue Response (pD2) α1D (rat aorta) (converted)
T3 construct: α1B (rat spleen) and α1D (rat aorta) receptors; from tissue; host or cells: rat aorta strips, endothelium removed
T3 sequence (P23944 1-561): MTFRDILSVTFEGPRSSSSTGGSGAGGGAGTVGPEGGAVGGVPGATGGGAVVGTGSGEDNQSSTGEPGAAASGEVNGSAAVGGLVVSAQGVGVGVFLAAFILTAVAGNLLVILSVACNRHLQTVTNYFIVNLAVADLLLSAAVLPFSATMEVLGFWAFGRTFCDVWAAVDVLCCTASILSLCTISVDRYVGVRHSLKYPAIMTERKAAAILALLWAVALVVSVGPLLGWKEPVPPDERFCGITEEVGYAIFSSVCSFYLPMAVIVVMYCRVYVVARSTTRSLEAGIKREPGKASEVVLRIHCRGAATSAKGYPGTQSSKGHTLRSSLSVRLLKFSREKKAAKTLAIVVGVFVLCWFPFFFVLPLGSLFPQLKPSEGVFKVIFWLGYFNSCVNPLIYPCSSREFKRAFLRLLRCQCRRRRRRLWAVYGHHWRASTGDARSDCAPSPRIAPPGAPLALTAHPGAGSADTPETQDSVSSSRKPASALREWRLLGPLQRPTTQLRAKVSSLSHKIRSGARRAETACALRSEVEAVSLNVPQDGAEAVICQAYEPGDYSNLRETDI

Anesthetized Dogs = experiment: Mean arterial pressure (MAP) in anesthetized dogs; assay type: in vivo, dog; conditions: iv dose causing a maximum increase in MAP of 20 mm Hg, anesthetized female dogs
Method in brief: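 Female dogs (12–15 kg) with carotid telemetry implants, thiopental 15 mg/kg i.v. then isoflurane (2.5 to 3 volume %) anesthesia; increasing i.v. doses of agonist with return to baseline between doses. MAP from telemetered arterial pressure; ED20 = dose raising MAP by 20 mm Hg, compared with IUP ED5 as selectivity ratio.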

SMILES | EC50 (α1B (rat spleen)) | Ki [1] | EC50 (α1D (rat aorta)) | Mean MAP ED20 (Anesthetized Dogs) | Mean MAP ED20 (Anesthetized Dogs; maleate) | Agonist Tissue Response (pD2) α1D (rat aorta) (α1D (rat aorta))
CS(=O)(=O)Nc1ccc(F)c2c1CCCC2c1c[nH]cn1.O=C(O)/C=C\C(=O)O (stereo not drawn) [Example 44, N-[4-fluoro-5-(1H-imidazol-4-yl)-5,6,7,8-tetrahydro-1-naphthalenyl]methanesulfonamide, maleate] | > 1000 µM | 0.31 µM | > 1000 µM | 632 nmol/kg |  | 
C=C(c1cccc(NS(=O)(=O)CC)c1)c1c[nH]cn1 [Example 45, N-{3-[1-(1H-imidazol-4-yl)vinyl]phenyly}ethanesulfonamide, maleate] | > 1000 µM | 0.565 µM | > 1000 µM | 633 nmol/kg |  | 
CCS(=O)(=O)Nc1cccc2c1CCCC2c1c[nH]cn1.O=C(O)/C=C\C(=O)O (stereo not drawn) [Example 12, N-[5-(1H-imidazol-4-yl)-5,6,7,8-tetrahydro-1-naphthalenyl]ethanesulfonamide, maleate] | > 1000 µM | 0.0959 µM | > 1000 µM | 69.3 nmol/kg |  | 
CC(c1cccc(NS(C)(=O)=O)c1)c1c[nH]cn1.O=C(O)/C=C\C(=O)O (stereo not drawn) [Example 31, N-[3-[1-(1H-imidazol-4-yl)ethyl]phenyl]methanesulfonamide, maleate] | > 1000 µM | 0.837 µM | > 1000 µM | 234 nmol/kg |  | 
CCS(=O)(=O)Nc1cccc2c1CCCC2c1c[nH]cn1.O=C(O)/C=C\C(=O)O (single isomer, unassigned; (+)) [Example 33, (+)-N-[5-(1H-imidazol-4-yl)-5,6,7,8-tetrahydro-1-naphthalenyl]ethanesulfonamide, maleate] | 3.8 µM | 0.0468 µM | > 1000 µM |  | 34.0 nmol/kg | 
CCS(=O)(=O)Nc1cccc(Cc2c[nH]cn2)c1C.O=C(O)/C=C\C(=O)O [Example 29, N-[3-(1H-imidazol-4-ylmethyl)-2-methylphenyl]ethanesulfonamide, maleate] | > 1000 µM | 0.258 µM | > 1000 µM | 202 nmol/kg |  | 
CCS(=O)(=O)Nc1cccc2c1CCCC2c1c[nH]cn1.O=C(O)/C=C\C(=O)O (single isomer, unassigned; (-)) [Example 34, (−)-N-[5-(1H-imidazol-4-yl)-5,6,7,8-tetrahydro-1-naphthalenyl]ethanesulfonamide, maleate] | > 1000 µM | 1.3 µM |  |  | >1000 nmol/kg | <3.00
O=C(Nc1cccc2c1CCCC2c1c[nH]cn1)C(F)(F)F (stereo not drawn) [Example 17, 2,2,2-trifluoro-N-[5-(1H-imidazol-4-yl)-5,6,7,8-tetahydro-1-naphthalenyl]acetamide, maleate] | 3.39 µM | 0.167 µM | > 1000 µM | 216 nmol/kg |  | 
COc1ccc(NS(C)(=O)=O)c2c1C(c1c[nH]cn1)CCC2 (stereo not drawn) [Example 26, N-[5,6,7,8-tetrahydro-(1H-imidazol-4-yl)-4-methoxyy-1-naphthalenyl]methanesulfonamide, maleate] | 18.2 µM | 1.68 µM | > 1000 µM | 1850 nmol/kg |  | 
CN(c1cccc2c1CCCC2c1c[nH]cn1)S(C)(=O)=O (stereo not drawn) [Example 15, N-[5,6,7,8-tetrahydro-5-(1H-imidazol-4-yl)-1-naphthalenyl]-N-methylmethanesulfonmamide, maleate] | 2.24 µM | 0.204 µM | > 1000 µM | 225 nmol/kg |  | 
Cc1c(Cc2c[nH]cn2)cccc1NS(C)(=O)=O.O=C(O)/C=C\C(=O)O [Example 28, N-[3-(1H-imidazol-4-ylmethyl)-2-methylphenyl]methanesulfonamide, maleate] | 7.76 µM | 0.525 µM | > 1000 µM | 158 nmol/kg |  | 
CS(=O)(=O)Nc1cccc(Cc2c[nH]cn2)c1.O=C(O)/C=C\C(=O)O [Example 21, N-[3-(1H-imidazol-4-ylmethyl)phenyl]methanesulfonamide, maleate] | > 1000 µM | 0.361 µM | > 1000 µM | 52.3 nmol/kg |  | 

Source: patent US6503935B1, “Imidazoles and related compounds as α1A agonists” (Abbott Laboratories, priority 1998, dated 2003)
